Assay results reported in ChEMBL document CHEMBL1201861, “Genomics of Drug Sensitity in Cancer screening data, Wellcome Trust Sanger Institute”.

Columns and labels:
Assay in all cases: cells
MV4-11 = format: functional, cell-based, Homo sapiens, MV-4-11; conditions: Homo sapiens, MV4-11
Description: SANGER: Inhibition of human MV-4-11 cell growth in a cell viability assay.

SNU-C2B = format: functional, cell-based; conditions: Homo sapiens
Description: SANGER: Inhibition of human SNU-C2B cell growth in a cell viability assay.

NCI-H69 = format: functional, cell-based, Homo sapiens; conditions: Homo sapiens, NCI-H69
Description: SANGER: Inhibition of human NCI-H69 cell growth in a cell viability assay.

NEC8 = format: functional, cell-based, Homo sapiens; conditions: Homo sapiens, NEC8
Description: SANGER: Inhibition of human NEC8 cell growth in a cell viability assay.

KGN = format: functional, cell-based, Homo sapiens; conditions: Homo sapiens, KGN
Description: SANGER: Inhibition of human KGN cell growth in a cell viability assay.

SK-LMS-1 = format: functional, cell-based, Homo sapiens; conditions: Homo sapiens, SK-LMS-1
Description: SANGER: Inhibition of human SK-LMS-1 cell growth in a cell viability assay.

SK-N-DZ = format: functional, cell-based, Homo sapiens; conditions: Homo sapiens, SK-N-DZ; read-out: IC50
Description: SANGER: Inhibition of human SK-N-DZ cell growth in a cell viability assay.

NTERA-2-cl-D1 = format: functional, cell-based, Homo sapiens; conditions: Homo sapiens, NTERA-2-cl-D1
Description: SANGER: Inhibition of human NTERA-S-cl-D1 cell growth in a cell viability assay.

MZ1-PC = format: functional, cell-based, Homo sapiens; conditions: Homo sapiens, MZ1-PC
Description: SANGER: Inhibition of human MZ1-PC cell growth in a cell viability assay.

BT-474 = format: functional, cell-based, Homo sapiens; conditions: Homo sapiens, BT-474
Description: SANGER: Inhibition of human BT-474 cell growth in a cell viability assay.

SK-N-FI = format: functional, cell-based, Homo sapiens; conditions: Homo sapiens, SK-N-FI
Description: SANGER: Inhibition of human SK-N-FI cell growth in a cell viability assay.

NCI-H1648 = format: functional, cell-based, Homo sapiens; conditions: Homo sapiens, NCI-H1648
Description: SANGER: Inhibition of human NCI-H1648 cell growth in a cell viability assay.

TE-9 = format: functional, cell-based, Homo sapiens; conditions: Homo sapiens, TE-9
Description: SANGER: Inhibition of human TE-9 cell growth in a cell viability assay.

LU-139 = format: functional, cell-based, Homo sapiens; conditions: Homo sapiens, LU-139
Description: SANGER: Inhibition of human LU-139 cell growth in a cell viability assay.

D-247MG = format: functional, cell-based; conditions: Homo sapiens
Description: SANGER: Inhibition of human D-247MG cell growth in a cell viability assay.

LS-1034 = format: functional, cell-based, Homo sapiens; conditions: Homo sapiens, LS-1034
Description: SANGER: Inhibition of human LS-1034 cell growth in a cell viability assay.

RPMI-8226 = format: functional, cell-based, Homo sapiens; conditions: Homo sapiens, RPMI-8226
Description: SANGER: Inhibition of human RPMI-8226 cell growth in a cell viability assay.

ES1 = format: functional, cell-based, Homo sapiens; conditions: Homo sapiens, ES1
Description: SANGER: Inhibition of human ES1 cell growth in a cell viability assay.

NB69 = format: functional, cell-based, Homo sapiens; conditions: Homo sapiens, NB69
Description: SANGER: Inhibition of human NB69 cell growth in a cell viability assay.

SW982 = format: functional, cell-based; conditions: Homo sapiens
Description: SANGER: Inhibition of human SW982 cell growth in a cell viability assay.

8-MG-BA = format: functional, cell-based, Homo sapiens; conditions: Homo sapiens, 8-MG-BA
Description: SANGER: Inhibition of human 8-MG-BA cell growth in a cell viability assay.

TGW = format: functional, cell-based, Homo sapiens; conditions: Homo sapiens, TGW
Description: SANGER: Inhibition of human TGW cell growth in a cell viability assay.

COLO-320-HSR = format: functional, cell-based, Homo sapiens; conditions: Homo sapiens, COLO-320-HSR
Description: SANGER: Inhibition of human COLO-320-HSR cell growth in a cell viability assay.

LB2518-MEL = format: functional, cell-based; conditions: Homo sapiens
Description: SANGER: Inhibition of human LB2518-MEL cell growth in a cell viability assay.

JAR = format: functional, cell-based, Homo sapiens; conditions: Homo sapiens, JAR
Description: SANGER: Inhibition of human JAR cell growth in a cell viability assay.

RPMI-8866 = format: functional, cell-based, Homo sapiens; conditions: Homo sapiens, RPMI-8866
Description: SANGER: Inhibition of human RPMI-8866 cell growth in a cell viability assay.

A3-KAW = format: functional, cell-based, Homo sapiens; conditions: Homo sapiens, A3-KAW
Description: SANGER: Inhibition of human A3-KAW cell growth in a cell viability assay.

SHP77 = format: functional, cell-based, Homo sapiens, SHP-77; conditions: Homo sapiens, SHP77
Description: SANGER: Inhibition of human SHP-77 cell growth in a cell viability assay.

NCI-H1355 = format: functional, cell-based, Homo sapiens; conditions: Homo sapiens, NCI-H1355
Description: SANGER: Inhibition of human NCI-H1355 cell growth in a cell viability assay.

BE-13 = format: functional, cell-based, Homo sapiens; conditions: Homo sapiens, BE-13
Description: SANGER: Inhibition of human BE-13 cell growth in a cell viability assay.

EOL1 = format: functional, cell-based, Homo sapiens; conditions: Homo sapiens, EOL1
Description: SANGER: Inhibition of human EoL-1-cell cell growth in a cell viability assay.

TE-8 = format: functional, cell-based, Homo sapiens; conditions: Homo sapiens, TE-8
Description: SANGER: Inhibition of human TE-8 cell growth in a cell viability assay.

DSH1 = format: functional, cell-based; conditions: Homo sapiens
Description: SANGER: Inhibition of human DSH1 cell growth in a cell viability assay.

MS-1 = format: functional, cell-based, Homo sapiens; conditions: Homo sapiens, MS-1
Description: SANGER: Inhibition of human MS-1 cell growth in a cell viability assay.

RH-1 = format: functional, cell-based, Homo sapiens; conditions: Homo sapiens, RH-1
Description: SANGER: Inhibition of human RH-1 cell growth in a cell viability assay.

NCI-H1299 = format: functional, cell-based; conditions: Homo sapiens
Description: SANGER: Inhibition of human NCI-H1299 cell growth in a cell viability assay.

OCUB-M = format: functional, cell-based; conditions: Homo sapiens
Description: SANGER: Inhibition of human OCUB-M cell growth in a cell viability assay.

SW 962 = format: functional, cell-based, Homo sapiens; conditions: Homo sapiens, SW 962
Description: SANGER: Inhibition of human SW962 cell growth in a cell viability assay.

HEL = format: functional, cell-based, Homo sapiens; conditions: Homo sapiens, HEL
Description: SANGER: Inhibition of human HEL cell growth in a cell viability assay.

AM-38 = format: functional, cell-based, Homo sapiens; conditions: Homo sapiens, AM-38
Description: SANGER: Inhibition of human AM-38 cell growth in a cell viability assay.

NOMO-1 = format: functional, cell-based, Homo sapiens; conditions: Homo sapiens, NOMO-1
Description: SANGER: Inhibition of human NOMO-1 cell growth in a cell viability assay.

HCE-4 = format: functional, cell-based; conditions: Homo sapiens
Description: SANGER: Inhibition of human HCE-4 cell growth in a cell viability assay.

NB13 = format: functional, cell-based, Homo sapiens; conditions: Homo sapiens, NB13
Description: SANGER: Inhibition of human NB13 cell growth in a cell viability assay.

SF-126 = format: functional, cell-based, Homo sapiens; conditions: Homo sapiens, SF-126
Description: SANGER: Inhibition of human SF126 cell growth in a cell viability assay.

NMC-G1 = format: functional, cell-based, Homo sapiens; conditions: Homo sapiens, NMC-G1
Description: SANGER: Inhibition of human NMC-G1 cell growth in a cell viability assay.

SK-MEL-1 = format: functional, cell-based, Homo sapiens; conditions: Homo sapiens, SK-MEL-1
Description: SANGER: Inhibition of human SK-MEL-1 cell growth in a cell viability assay.

JVM-3 = format: functional, cell-based, Homo sapiens; conditions: Homo sapiens, JVM-3
Description: SANGER: Inhibition of human JVM-3 cell growth in a cell viability assay.

CCRF-CEM = format: functional, cell-based, Homo sapiens; conditions: Homo sapiens, CCRF-CEM
Description: SANGER: Inhibition of human CCRF-CEM cell growth in a cell viability assay.

D283 Med = format: functional, cell-based, Homo sapiens; conditions: Homo sapiens, D283 Med
Description: SANGER: Inhibition of human D-283MED cell growth in a cell viability assay.

HOP-62 = format: functional, cell-based, Homo sapiens; conditions: Homo sapiens, HOP-62
Description: SANGER: Inhibition of human HOP-62 cell growth in a cell viability assay.

A388 = format: functional, cell-based; conditions: Homo sapiens
Description: SANGER: Inhibition of human A388 cell growth in a cell viability assay.

## COC(=O)[C@H](CCSC)NC(=O)c1ccc(NC[C@@H](N)CS)cc1-c1ccccc1
MV4-11
  IC50: > 1.02 µM
SNU-C2B
  IC50: > 1.02 µM
NCI-H69
  IC50: > 1.02 µM
NEC8
  IC50: > 1.02 µM
KGN
  IC50: > 1.02 µM
SK-LMS-1
  IC50: > 1.02 µM
SK-N-DZ
  IC50: > 1.02 µM
NTERA-2-cl-D1
  IC50: > 1.02 µM
MZ1-PC
  IC50: > 1.02 µM
BT-474
  IC50: > 1.02 µM
SK-N-FI
  IC50: > 1.02 µM
NCI-H1648
  IC50: > 1.02 µM
TE-9
  IC50: > 1.02 µM
LU-139
  IC50: > 1.02 µM
D-247MG
  IC50: > 1.02 µM
LS-1034
  IC50: > 1.02 µM
RPMI-8226
  IC50: > 1.02 µM
ES1
  IC50: > 1.02 µM
NB69
  IC50: > 1.02 µM
SW982
  IC50: > 1.02 µM
8-MG-BA
  IC50: > 1.02 µM
TGW
  IC50: > 1.02 µM
COLO-320-HSR
  IC50: > 1.02 µM
LB2518-MEL
  IC50: > 1.02 µM
JAR
  IC50: > 1.02 µM
RPMI-8866
  IC50: > 1.02 µM
A3-KAW
  IC50: > 1.02 µM
SHP77
  IC50: > 1.02 µM
NCI-H1355
  IC50: > 1.02 µM
BE-13
  IC50: > 1.02 µM
EOL1
  IC50: > 1.02 µM
TE-8
  IC50: > 1.02 µM
DSH1
  IC50: > 1.02 µM
MS-1
  IC50: > 1.02 µM
RH-1
  IC50: > 1.02 µM
NCI-H1299
  IC50: > 1.02 µM
OCUB-M
  IC50: > 1.02 µM
SW 962
  IC50: > 1.02 µM
HEL
  IC50: > 1.02 µM
AM-38
  IC50: > 1.02 µM
NOMO-1
  IC50: > 1.02 µM
HCE-4
  IC50: > 1.02 µM
NB13
  IC50: > 1.02 µM
SF-126
  IC50: > 1.02 µM
NMC-G1
  IC50: > 1.02 µM
SK-MEL-1
  IC50: > 1.02 µM
JVM-3
  IC50: > 1.02 µM
CCRF-CEM
  IC50: > 1.02 µM
D283 Med
  IC50: > 1.02 µM
HOP-62
  IC50: > 1.02 µM
A388
  IC50: > 1.02 µM

## O=S(=O)(O)c1ccc2cc(/N=N/c3cc(S(=O)(=O)O)c4cccnc4c3O)ccc2c1
MV4-11
  IC50: > 16 µM
SNU-C2B
  IC50: > 16 µM
NCI-H69
  IC50: > 16 µM
NEC8
  IC50: > 16 µM
KGN
  IC50: > 16 µM
SK-LMS-1
  IC50: 9.45 µM
SK-N-DZ
  IC50: > 16 µM
NTERA-2-cl-D1
  IC50: > 16 µM
MZ1-PC
  IC50: > 16 µM
BT-474
  IC50: > 16 µM
SK-N-FI
  IC50: > 16 µM
NCI-H1648
  IC50: > 16 µM
TE-9
  IC50: > 16 µM
LU-139
  IC50: > 16 µM
D-247MG
  IC50: > 16 µM
LS-1034
  IC50: > 16 µM
RPMI-8226
  IC50: > 16 µM
ES1
  IC50: > 16 µM
NB69
  IC50: > 16 µM
SW982
  IC50: > 16 µM
8-MG-BA
  IC50: > 16 µM
TGW
  IC50: > 16 µM
COLO-320-HSR
  IC50: > 16 µM
LB2518-MEL
  IC50: > 16 µM
JAR
  IC50: > 16 µM
RPMI-8866
  IC50: > 16 µM
A3-KAW
  IC50: > 16 µM
SHP77
  IC50: > 16 µM
NCI-H1355
  IC50: > 16 µM
BE-13
  IC50: > 16 µM
EOL1
  IC50: > 16 µM
TE-8
  IC50: > 16 µM
DSH1
  IC50: > 16 µM
MS-1
  IC50: > 16 µM
RH-1
  IC50: > 16 µM
NCI-H1299
  IC50: > 16 µM
OCUB-M
  IC50: > 16 µM
SW 962
  IC50: > 16 µM
HEL
  IC50: > 16 µM
AM-38
  IC50: > 16 µM
NOMO-1
  IC50: > 16 µM
HCE-4
  IC50: > 16 µM
NB13
  IC50: > 16 µM
SF-126
  IC50: > 16 µM
NMC-G1
  IC50: > 16 µM
SK-MEL-1
  IC50: > 16 µM
JVM-3
  IC50: > 16 µM
CCRF-CEM
  IC50: > 16 µM
D283 Med
  IC50: > 16 µM
HOP-62
  IC50: > 16 µM
A388
  IC50: > 16 µM
